Results from patent US20220175760A1, “PHARMACEUTICAL FORMULATIONS” (Janssen Pharmaceutica NV, priority 2019, published 2022).
≈ marks a conversion by molar mass, not a printed value.

Key:
[1] = Solubility of Compound A in FaSSIF; assay type: physicochemical; conditions: 37 °C
Protocol: (§1) A 1% solution of PVPVA64 in FaSSIF was prepared by weighing 2.5 g of PVPVA64 in a volumetric flask and dissolving it in 250 mL FaSSIF at 37° C. The complete volume of the volumetric flask was transferred to a suitable Duran bottle. Afterwards, a highly concentrated solution of Compound A monohydrate (obtained according to Example 1) in NMP was prepared (175 mg/mL). At time zero, 679 μL of the highly concentrated Compound A solution (175 mg/mL) was added to the Duran bottle containing 250 mL FaSSIF+1% PVPVA64 (w/v). The added volume Compound A solution was chosen to obtain a theoretical final concentration of 475.5 μg/mL. This concentration results in a suitable degree of supersaturation of Compound A.

[2] = Crystallisation inhibition: XRPD of the precipitate from a supersaturated solution in FaSSIF + 1% PVPVA64; assay type: physicochemical; conditions: Compound A monohydrate in NMP (175 mg/mL) added to FaSSIF + 1% PVPVA64, 475.5 μg/mL (DS 16), 37° C., 2 hours, 300 rpm
Protocol: as §1
A precipitate formed immediately after adding the highly concentrated solution. The mixture was equilibrated at 37° C. for 2 hours while stirring at 300 rpm. After 2 hours, the precipitate was separated from the liquid phase by vacuum filtration. The precipitate was then analyzed with Powder X-Ray Diffraction to check if the API present in the formed precipitate was present as an amorphous or a crystalline form.
X-ray powder diffraction (XRPD) analysis was carried out on a PANalytical (Philips) X'PertPRO MPD diffractometer. The instrument is equipped with a Cu LFF X-ray tube. The compound was spread on a zero-background sample holder

With O=C(Nc1ccnc(C(F)(F)F)c1)c1cnn(-c2cccc3c(=O)[nH]ccc23)c1C(F)(F)F [Compound A, 1-(1-oxo-1,2-dihydroisoquinolin-5-yl)-5-(trifluoromethyl)-N-(2-(trifluoromethyl)pyridin-4-yl)-1H-pyrazole-4-carboxamide] the solubility [1] was 29.7 µg/mL (≈ 63.6 µM) and the “Form of the precipitate (amorphous or crystalline) by XRPD” value [2] was “amorphous precipitate”.
